Measurements taken from patent US20240269170A1, “Treatment of Inflammatory Conditions or Diseases” (Queen Mary University of London, priority 2021, published 2024).

System: K/B×N serum induced arthritis in C57BL/6 mice
Experiment: Sustained K/B×N serum induced arthritis, transfer of monocytes from arthritic mice incubated with MCTR3
Format: in vivo, mouse
Conditions: monocytes incubated with 10 μM RG108 for 15 min before 1 nM MCTR3
Method: (C-D) K/B×N serum (100 μL, i.p.) was administered to C57BL/6 mice on day 0, 2 and 9 to induce and prolong inflammatory arthritis and, on day 12, mice were treated i.v. with 2×10^6 monocytes isolated from arthritic mice and incubated with either vehicle (PBS+0.1% EtOH) or 1 nM MCTR3 for 90 min at 37° C. Disease course was monitored daily by assessing C) clinical scores and D) oedema. Results are mean±SEM. and expressed as percent change from day of treatment. n=9 per group from two distinct experiments. (E) On day 22 hind paws were harvested joints were fixed, sectioned, stained using H&E stain and leukocyte infiltration evaluated. Top and centre panels present representative images from each experimental group; bottom panel Quantitation of the scores in each of the group. Results are mean±SEM. n=8 mice per group. Statistical differences were evaluated using Mann-Whitney U test. IFP=intrapatellar fat, M=meniscus, TB=Tibia, PF=Pannus formation, arrows denote leukocyte infiltration. (F-G) Paws were harvested 10 days after treatment and lipid mediator profiles were determined using LC-MS/MS-based lipid mediator profiling and evaluated using PLS-DA. (F) scores plot with highlighted regions denoting the clusters representing cells from each group (G) VIP scores for top 15 mediators. Each dot in the score plot represents a separate mouse.
FIG. 4: Regulation of joint reparative pathways in mice receiving MCTR3-trained monocytes. K/B×N serum (100 μL, i.p.) was administered to C57BL/6 mice on day 0, 2 and 9 to induce and prolong inflammatory arthritis and, on day 12, mice were treated i.v. with 2×10^6 monocytes isolated from arthritic mice and incubated with either vehicle (PBS+0.1% EtOH) or 1 nM MCTR3 for 90 min. (A-C) On day 22 hind paws were harvested, fixed, and stained to evaluate A) proteoglycan content using Safranin-O staining; B) Col 2 and C) Col X expression was evaluated using immunofluorescence. Left panels present representative images from each experimental group, right panels provide a quantitative evaluation of the staining. Results are expressed as percent change vs Monocyte group. n=7-8 mice per group. Statistical differences were evaluated using Wilcoxon signed rank test. (D-I) Hind paws were also collected on day 22 to evaluate the expression of the indicated genes was evaluated using quantitative realtime PCR. Results are from n=5 mice per group. Statistical differences were evaluated using Mann Whitney-U test.
FIG. 5: MCTR3 reprograms the arthritic monocyte-derive macrophage transcriptome. A-B) Arthritis was induced and prolonged in C57BL/6 mice by administering 100 μL K/B×N serum i.p. on day 0, 2 and 9. Mice were treated on day 12 i.v. with 2×10^6 monocytes isolated from arthritic mice and incubated either with vehicle (PBS+0.1% DMSO) or 10 μM RG108, a DNMT inhibitor, for 15 min and then with a vehicle (PBS+0.1% EtOH) or 1 nM MCTR3 for 90 min (37° C.). Disease course was monitored daily by assessing A) clinical scores and B) oedema. Results are mean±SEM and expressed as percent change from day of treatment. n=10 mice per group. Statistical differences were evaluated using Two-way ANOVA. (C-E) K/B×N serum (100 μL, i.p.) was administered to mice on days 0, 2 and 9 to induce and prolong inflammatory arthritis. On day 12, mice were treated i.v. with 2×10^6 monocytes isolated from arthritic mice that were previously incubated with either vehicle (PBS+0.1% EtOH) or 1 nM MCTR3 for 90 min. Cells were isolated from paw joints on day 22, sorted for CD45^+ cells and single cell RNA sequencing was performed. […] Results are from n=4 mice per group. (F-G) Monocytes were isolated from human healthy volunteers, these cells were then incubated with GM-CSF (7 days, 37° C.) then with either Vehicle or MCTR3 (1 nM, 37° C.). Cells were lysed and the phosphoproteome determined using mass spectrometry. […]

O=C(O)C(Cc1c[nH]c2ccccc12)N1C(=O)c2ccccc2C1=O (centres unmarked) [RG108]
protective actions of MCTR3 (ability of reprogrammed monocytes to regulate joint inflammation): abolished | ability of MCTR3 to upregulate Arg-1 in PKH67+ CD64+ cells in vivo (day 22): reversed
